# Earlier results in patent US8298564B2, “Two part antimicrobial boot” (Medtronic, Inc., priority 2006, dated 2012).
# Experiments:
# [1] = not given; remark: listed apart in the source
Structure (SMILES),degradation with ethylene oxide sterilization (ethylene oxide sterilization),degradation under steam sterilization [1],"degradation or loss in antimicrobial activity of rifampin-containing devices treated with ethylene oxide (devices containing rifampin treated with ethylene oxide, reported by numerous studies)","degradation on ethylene oxide sterilization, as discovered in U.S. patent application Ser. No. 11/535,762 (ethylene oxide sterilization)"
CN(C)c1ccc(O)c2c1C[C@H]1C[C@H]3[C@H](N(C)C)C(O)=C(C(N)=O)C(=O)[C@@]3(O)C(O)=C1C2=O [minocycline],does not appear to substantially degrade,degrades to unacceptable levels,,
CO[C@H]1/C=C/O[C@@]2(C)Oc3c(C)c(O)c4c(O)c(c(/C=N/N5CCN(C)CC5)c(O)c4c3C2=O)NC(=O)/C(C)=C\C=C\[C@H](C)[C@H](O)[C@@H](C)[C@@H](O)[C@@H](C)[C@H](OC(C)=O)[C@@H]1C [rifampin],,fairly stable,no detectable degradation or no loss in antimicrobial activity,substantial degradation
